Assay results published in US6958323B2 (priority 1997, dated 2005).
Read-outs that look alike come from different tables or passages of the source.

How the values were obtained:
[1] = tested on: rat striatal synaptosomes; format: cell-based
[2] = tested on: rat striatal synaptosomes; conditions: cited from earlier work
[3] = tested on: rat hippocampal synaptosomes; conditions: read-out: EC50 for release of hippocampal norepinephrine; cited from earlier work

SMILES | Block of nicotine-stimulated [3H]-dopamine release [1] | EC50 ([2]; read-out: EC50 for increase of [3H]-dopamine release) [µM] | EC50 ([2]; read-out: EC50 for release of striatal dopamine) [µM] | EC50 [3] [µM]
CNC1(C)C2CCC(C2)C1(C)C (stereo not shown) [mecamylamine] | fully blocked | – | – | –
CN1CCCC1c1cccnc1 (stereo not shown) [nicotine] | – | 0.16 | 0.16 | 6.5
